Measurements from article PMC11882969 (Nature Communications, 2025).
Several values for one entry are separate records, joined by “and”; a condition that tells them apart may be missing. Identical values can stand only once.

Assays:
Format in all cases: cell-based
[1] = biological target: panel of 320 non-olfactory GPCRs (Homo sapiens, UniProt P31391)
[2] = biological target: panel of 320 non-olfactory GPCRs (Homo sapiens, UniProt O95800)
[3] = biological target: panel of 320 non-olfactory GPCRs (Homo sapiens, UniProt O00222)
[4] = biological target: panel of 320 non-olfactory GPCRs (Homo sapiens, UniProt Q86SM5)
[5] = biological target: panel of 320 non-olfactory GPCRs (Homo sapiens, UniProt O15354)
[6] = biological target: panel of 320 non-olfactory GPCRs (Homo sapiens, UniProt P23945)
[7] = biological target: panel of 320 non-olfactory GPCRs (Homo sapiens, UniProt Q9Y653)
[8] = biological target: panel of 320 non-olfactory GPCRs (Homo sapiens, UniProt Q9Y2T6)
[9] = biological target: panel of 320 non-olfactory GPCRs (Homo sapiens, UniProt P48145)
[10] = biological target: panel of 320 non-olfactory GPCRs (Homo sapiens, UniProt P21730)
[11] = biological target: panel of 320 non-olfactory GPCRs (Homo sapiens, UniProt P28222)
[12] = biological target: panel of 320 non-olfactory GPCRs (Homo sapiens, UniProt P43657)
[13] = biological target: panel of 320 non-olfactory GPCRs (Homo sapiens, UniProt P55085)
[14] = biological target: panel of 320 non-olfactory GPCRs (Homo sapiens, UniProt O43193)
[15] = biological target: panel of 320 non-olfactory GPCRs (Homo sapiens, UniProt O95136)
[16] = biological target: panel of 320 non-olfactory GPCRs (Homo sapiens, UniProt P08172)
[17] = biological target: panel of 320 non-olfactory GPCRs (Homo sapiens, UniProt P28221)
[18] = biological target: panel of 320 non-olfactory GPCRs (Homo sapiens, UniProt P21728)
[19] = biological target: panel of 320 non-olfactory GPCRs (Homo sapiens, UniProt Q01718)
[20] = biological target: panel of 320 non-olfactory GPCRs (Homo sapiens, UniProt Q8IZF2)
[21] = biological target: panel of 320 non-olfactory GPCRs (Homo sapiens, UniProt P34972)
[22] = biological target: panel of 320 non-olfactory GPCRs (Homo sapiens, UniProt Q9BPV8)
[23] = biological target: panel of 320 non-olfactory GPCRs (Homo sapiens, UniProt Q15760)
[24] = biological target: panel of 320 non-olfactory GPCRs (Homo sapiens, UniProt Q9HC97)
[25] = biological target: panel of 320 non-olfactory GPCRs (Homo sapiens, UniProt P30872)
[26] = biological target: panel of 320 non-olfactory GPCRs (Homo sapiens, UniProt Q9NS66)
[27] = biological target: panel of 320 non-olfactory GPCRs (Homo sapiens, UniProt P41231)
[28] = biological target: panel of 320 non-olfactory GPCRs (Homo sapiens, UniProt P49190)
[29] = biological target: panel of 320 non-olfactory GPCRs (Homo sapiens, UniProt Q9BY21)
[30] = biological target: panel of 320 non-olfactory GPCRs (Homo sapiens, UniProt P21452)
[31] = biological target: panel of 320 non-olfactory GPCRs (Homo sapiens, UniProt O75388)
[32] = biological target: panel of 320 non-olfactory GPCRs (Homo sapiens, UniProt Q13585)
[33] = biological target: panel of 320 non-olfactory GPCRs (Homo sapiens, UniProt Q92633)
[34] = biological target: panel of 320 non-olfactory GPCRs (Homo sapiens, UniProt P21453)
[35] = biological target: panel of 320 non-olfactory GPCRs (Homo sapiens, UniProt O00254)
[36] = biological target: panel of 320 non-olfactory GPCRs (Homo sapiens, UniProt P08912)
[37] = biological target: panel of 320 non-olfactory GPCRs (Homo sapiens, UniProt Q15761)
Also: test concentration or dose not given here.

Sequence of panel of 320 non-olfactory GPCRs (Homo sapiens, UniProt P49190) (P49190 25-550): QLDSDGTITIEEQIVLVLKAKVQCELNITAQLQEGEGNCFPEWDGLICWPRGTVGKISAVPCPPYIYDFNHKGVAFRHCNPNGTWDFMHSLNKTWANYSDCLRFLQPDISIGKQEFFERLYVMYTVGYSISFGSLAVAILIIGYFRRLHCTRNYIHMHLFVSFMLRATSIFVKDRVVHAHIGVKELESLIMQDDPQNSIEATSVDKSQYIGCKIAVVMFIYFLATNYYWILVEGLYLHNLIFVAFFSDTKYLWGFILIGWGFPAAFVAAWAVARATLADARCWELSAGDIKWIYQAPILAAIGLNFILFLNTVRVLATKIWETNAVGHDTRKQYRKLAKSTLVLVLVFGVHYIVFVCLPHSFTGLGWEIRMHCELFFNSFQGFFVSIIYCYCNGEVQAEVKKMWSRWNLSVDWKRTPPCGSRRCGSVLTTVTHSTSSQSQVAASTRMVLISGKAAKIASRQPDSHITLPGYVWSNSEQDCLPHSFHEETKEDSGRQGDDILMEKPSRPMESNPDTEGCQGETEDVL
Sequence of panel of 320 non-olfactory GPCRs (Homo sapiens, UniProt Q86SM5) (Q86SM5 whole entry): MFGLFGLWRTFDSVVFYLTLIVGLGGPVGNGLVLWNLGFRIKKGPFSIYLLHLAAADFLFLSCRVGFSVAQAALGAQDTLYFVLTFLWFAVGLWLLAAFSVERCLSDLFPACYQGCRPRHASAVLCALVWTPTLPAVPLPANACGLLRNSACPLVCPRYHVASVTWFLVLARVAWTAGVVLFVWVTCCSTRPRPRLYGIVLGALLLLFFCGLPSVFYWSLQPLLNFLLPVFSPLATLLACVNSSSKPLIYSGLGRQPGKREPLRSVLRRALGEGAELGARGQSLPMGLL
Sequence of panel of 320 non-olfactory GPCRs (Homo sapiens, UniProt O95136) (O95136 whole entry): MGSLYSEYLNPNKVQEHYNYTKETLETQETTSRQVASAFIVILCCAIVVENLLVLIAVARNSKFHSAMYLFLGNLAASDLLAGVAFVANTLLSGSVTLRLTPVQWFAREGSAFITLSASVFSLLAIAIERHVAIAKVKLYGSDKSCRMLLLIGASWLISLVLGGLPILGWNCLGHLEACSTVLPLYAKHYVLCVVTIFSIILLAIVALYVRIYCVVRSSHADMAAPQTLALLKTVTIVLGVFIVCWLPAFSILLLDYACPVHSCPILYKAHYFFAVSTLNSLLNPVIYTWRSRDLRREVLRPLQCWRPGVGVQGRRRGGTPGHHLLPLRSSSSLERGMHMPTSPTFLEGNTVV
Sequence of panel of 320 non-olfactory GPCRs (Homo sapiens, UniProt Q9Y653) (Q9Y653 26-693): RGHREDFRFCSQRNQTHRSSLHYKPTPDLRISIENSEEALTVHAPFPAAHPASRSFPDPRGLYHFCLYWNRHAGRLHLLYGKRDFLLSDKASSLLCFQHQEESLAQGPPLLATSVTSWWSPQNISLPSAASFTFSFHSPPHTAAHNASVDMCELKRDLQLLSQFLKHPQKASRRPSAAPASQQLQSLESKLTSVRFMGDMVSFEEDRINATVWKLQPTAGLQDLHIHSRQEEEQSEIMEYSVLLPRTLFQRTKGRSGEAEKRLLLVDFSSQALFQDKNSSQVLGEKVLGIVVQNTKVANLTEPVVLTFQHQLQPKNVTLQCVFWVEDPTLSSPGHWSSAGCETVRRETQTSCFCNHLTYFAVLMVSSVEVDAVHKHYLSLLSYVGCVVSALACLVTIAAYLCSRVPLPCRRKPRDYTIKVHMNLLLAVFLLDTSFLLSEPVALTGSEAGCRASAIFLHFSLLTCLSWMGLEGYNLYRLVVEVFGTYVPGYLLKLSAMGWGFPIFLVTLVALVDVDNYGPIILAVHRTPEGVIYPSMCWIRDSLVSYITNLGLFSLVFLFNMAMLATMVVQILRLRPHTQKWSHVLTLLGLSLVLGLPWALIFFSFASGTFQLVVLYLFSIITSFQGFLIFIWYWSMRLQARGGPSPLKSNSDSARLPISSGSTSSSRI
Sequence of panel of 320 non-olfactory GPCRs (Homo sapiens, UniProt P21452) (P21452 whole entry): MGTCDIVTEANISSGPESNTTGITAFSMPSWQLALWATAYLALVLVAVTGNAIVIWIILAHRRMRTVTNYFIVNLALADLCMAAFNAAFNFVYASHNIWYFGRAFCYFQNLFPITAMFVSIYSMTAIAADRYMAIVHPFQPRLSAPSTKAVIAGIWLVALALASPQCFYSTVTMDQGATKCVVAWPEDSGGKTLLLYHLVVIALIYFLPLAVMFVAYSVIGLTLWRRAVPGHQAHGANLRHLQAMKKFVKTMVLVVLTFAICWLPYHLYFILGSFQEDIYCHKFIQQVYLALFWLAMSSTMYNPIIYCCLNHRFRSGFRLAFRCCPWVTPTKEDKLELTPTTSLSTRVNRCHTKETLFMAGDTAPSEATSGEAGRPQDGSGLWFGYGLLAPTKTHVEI
Sequence of panel of 320 non-olfactory GPCRs (Homo sapiens, UniProt P21730) (P21730 whole entry): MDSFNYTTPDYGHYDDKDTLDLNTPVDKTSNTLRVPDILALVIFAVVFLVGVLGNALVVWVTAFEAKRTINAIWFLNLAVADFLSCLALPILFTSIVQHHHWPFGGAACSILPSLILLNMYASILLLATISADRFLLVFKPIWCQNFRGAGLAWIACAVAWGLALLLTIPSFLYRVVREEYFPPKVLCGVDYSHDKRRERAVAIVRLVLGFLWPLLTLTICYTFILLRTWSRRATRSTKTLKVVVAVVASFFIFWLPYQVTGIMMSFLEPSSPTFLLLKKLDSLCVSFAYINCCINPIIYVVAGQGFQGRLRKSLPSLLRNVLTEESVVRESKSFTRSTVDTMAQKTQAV
Sequence of panel of 320 non-olfactory GPCRs (Homo sapiens, UniProt Q9BY21) (Q9BY21 whole entry): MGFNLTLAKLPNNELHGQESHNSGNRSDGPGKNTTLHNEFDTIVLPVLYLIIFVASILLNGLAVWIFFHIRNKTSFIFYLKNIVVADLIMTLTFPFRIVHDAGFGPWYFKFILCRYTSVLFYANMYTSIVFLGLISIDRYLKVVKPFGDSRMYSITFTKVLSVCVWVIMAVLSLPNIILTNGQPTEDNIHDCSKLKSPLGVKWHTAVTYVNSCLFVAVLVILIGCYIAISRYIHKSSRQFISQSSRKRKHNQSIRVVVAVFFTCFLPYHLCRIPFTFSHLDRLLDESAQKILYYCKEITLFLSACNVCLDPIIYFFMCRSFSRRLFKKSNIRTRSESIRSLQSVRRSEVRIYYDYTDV
Sequence of panel of 320 non-olfactory GPCRs (Homo sapiens, UniProt P21728) (P21728 whole entry): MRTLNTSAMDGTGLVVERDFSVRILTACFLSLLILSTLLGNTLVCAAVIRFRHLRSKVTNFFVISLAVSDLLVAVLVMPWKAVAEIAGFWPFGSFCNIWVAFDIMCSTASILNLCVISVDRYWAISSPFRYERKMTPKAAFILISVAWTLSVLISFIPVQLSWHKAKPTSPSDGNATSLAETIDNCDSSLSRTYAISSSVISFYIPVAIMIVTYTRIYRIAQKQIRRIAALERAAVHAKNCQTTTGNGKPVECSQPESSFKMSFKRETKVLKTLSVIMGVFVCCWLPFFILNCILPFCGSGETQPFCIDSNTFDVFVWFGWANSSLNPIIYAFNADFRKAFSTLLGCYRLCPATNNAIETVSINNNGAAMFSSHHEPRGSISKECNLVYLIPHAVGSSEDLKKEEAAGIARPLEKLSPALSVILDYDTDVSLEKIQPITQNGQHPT
Sequence of panel of 320 non-olfactory GPCRs (Homo sapiens, UniProt P43657) (P43657 whole entry): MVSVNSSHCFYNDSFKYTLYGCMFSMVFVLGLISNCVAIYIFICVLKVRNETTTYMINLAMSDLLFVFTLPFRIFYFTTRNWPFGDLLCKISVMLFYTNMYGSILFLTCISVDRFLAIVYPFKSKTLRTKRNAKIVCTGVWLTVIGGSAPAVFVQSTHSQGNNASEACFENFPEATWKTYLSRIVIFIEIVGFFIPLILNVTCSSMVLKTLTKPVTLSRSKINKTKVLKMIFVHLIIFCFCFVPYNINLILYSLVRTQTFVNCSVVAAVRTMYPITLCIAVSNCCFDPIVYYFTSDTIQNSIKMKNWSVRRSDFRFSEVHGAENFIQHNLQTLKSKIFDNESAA
Sequence of panel of 320 non-olfactory GPCRs (Homo sapiens, UniProt P30872) (P30872 whole entry): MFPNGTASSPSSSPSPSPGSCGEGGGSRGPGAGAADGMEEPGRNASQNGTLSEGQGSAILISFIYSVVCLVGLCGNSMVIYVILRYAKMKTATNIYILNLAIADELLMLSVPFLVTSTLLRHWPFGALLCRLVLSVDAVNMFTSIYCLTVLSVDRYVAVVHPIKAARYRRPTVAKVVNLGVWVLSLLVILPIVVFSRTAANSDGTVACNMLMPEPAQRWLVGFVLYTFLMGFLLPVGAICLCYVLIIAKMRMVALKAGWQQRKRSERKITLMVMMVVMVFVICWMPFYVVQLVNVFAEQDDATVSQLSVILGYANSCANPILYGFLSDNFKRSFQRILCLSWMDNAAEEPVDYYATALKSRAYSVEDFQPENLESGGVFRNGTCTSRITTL
Sequence of panel of 320 non-olfactory GPCRs (Homo sapiens, UniProt P08172) (P08172 whole entry): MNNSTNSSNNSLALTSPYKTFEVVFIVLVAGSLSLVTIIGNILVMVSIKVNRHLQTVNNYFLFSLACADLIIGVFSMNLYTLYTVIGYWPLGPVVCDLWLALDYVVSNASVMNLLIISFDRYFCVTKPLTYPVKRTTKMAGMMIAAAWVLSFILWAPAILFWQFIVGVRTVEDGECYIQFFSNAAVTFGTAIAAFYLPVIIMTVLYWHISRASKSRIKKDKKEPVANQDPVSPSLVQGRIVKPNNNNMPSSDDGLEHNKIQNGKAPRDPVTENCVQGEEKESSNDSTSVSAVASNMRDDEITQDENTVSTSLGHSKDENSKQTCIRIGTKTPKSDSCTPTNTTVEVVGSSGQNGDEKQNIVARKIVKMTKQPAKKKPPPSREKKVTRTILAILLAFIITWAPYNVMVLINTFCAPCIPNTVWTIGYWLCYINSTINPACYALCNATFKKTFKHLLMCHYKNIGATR
Sequence of panel of 320 non-olfactory GPCRs (Homo sapiens, UniProt Q9Y2T6) (Q9Y2T6 whole entry): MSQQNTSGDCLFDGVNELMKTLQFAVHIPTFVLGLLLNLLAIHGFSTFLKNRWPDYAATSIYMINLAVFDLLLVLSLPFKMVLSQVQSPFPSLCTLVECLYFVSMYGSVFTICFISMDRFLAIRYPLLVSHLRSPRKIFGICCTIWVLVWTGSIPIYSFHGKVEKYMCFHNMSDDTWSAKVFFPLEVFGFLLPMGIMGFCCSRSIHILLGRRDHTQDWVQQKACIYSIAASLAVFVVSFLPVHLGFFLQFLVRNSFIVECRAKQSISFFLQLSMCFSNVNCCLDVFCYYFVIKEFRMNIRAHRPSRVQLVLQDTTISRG

Compound	Fold of Basal RLU [1]	Fold of Basal RLU [2]	Fold of Basal RLU [3]	Fold of Basal RLU [4]	Fold of Basal RLU [5]	Fold of Basal RLU [6]	Fold of Basal RLU [7]	Fold of Basal RLU [8]	Fold of Basal RLU [9]	Fold of Basal RLU [10]	Fold of Basal RLU [11]	Fold of Basal RLU [12]	Fold of Basal RLU [13]	Fold of Basal RLU [14]	Fold of Basal RLU [15]	Fold of Basal RLU [16]	Fold of Basal RLU [17]	Fold of Basal RLU [18]	Fold of Basal RLU [19]	Fold of Basal RLU [20]	also measured
COC(=O)[C@@](C)(NC(=O)c1cc(C)n(-c2cccc(C(F)(F)F)c2)n1)c1cccs1 [‘1350]	2.3 and 2 and 1.6	1.1 fold and 1 fold and 1.2 fold and 2 fold	0.7 and 0.9 and 1.2 and 1.4	0.7 fold and 0.8 fold	1 fold and 0.8 fold and 0.9 fold and 1.3 fold	1 fold and 1.2 fold and 0.7 fold and 0.8 fold	1.4 fold and 1.2 fold and 1.5 fold	1.4 fold and 1.3 fold and 1.5 fold	1.2 and 1.8 and 1.3 and 1.4	1.1 fold and 0.9 fold and 1.2 fold and 1 fold	1.3 fold and 1.1 fold and 1.2 fold	0.9 fold and 1 fold and 1.1 fold and 0.7 fold	0.8 and 1.2	0.7 and 0.6	1.3 fold and 0.9 fold and 1.2 fold and 1 fold	0.9 fold and 0.6 fold and 0.8 fold	1.1 fold and 0.9 fold and 1.2 fold	0.9 and 1.1 and 0.8	1 and 1.3 and 0.7	1.1 fold and 1.3 fold	Fold of Basal RLU [21]: 8.2 and 8.7 and 8.6; Fold of Basal RLU [22]: 1 fold and 1.1 fold and 1.4 fold and 1.6 fold; Fold of Basal RLU [23]: 0.9 fold and 1.2 fold and 1 fold; Fold of Basal RLU [24]: 1 fold and 0.9 fold and 1.1 fold; Fold of Basal RLU [25]: 1.6 fold and 1.2 fold and 1.5 fold; Fold of Basal RLU [26]: 1.6 and 1.3 and 1.7; Fold of Basal RLU [27]: 1.3 fold and 1.4 fold and 1 fold; Fold of Basal RLU [28]: 1 and 0.7 and 0.9; Fold of Basal RLU [29]: 1 fold and 0.9 fold and 1.1 fold; Fold of Basal RLU [30]: 1 fold and 1.1 fold and 0.9 fold; Fold of Basal RLU [31]: 1.1 fold and 0.9 fold and 1 fold and 0.8 fold; Fold of Basal RLU [32]: 0.9 and 0.7 and 1.3 and 1; Fold of Basal RLU [33]: 1.3 fold and 1 fold and 1.2 fold; Fold of Basal RLU [34]: 0.9 fold and 1 fold and 0.8 fold and 0.7 fold; Fold of Basal RLU [35]: 0.9 fold and 1.1 fold; Fold of Basal RLU [36]: 0.9 fold and 1.4 fold and 1.1 fold and 1.7 fold; Fold of Basal RLU [37]: 1.2 fold and 1 fold
Cc1cc(C(=O)NC(C)(c2ccco2)c2ccco2)nn1-c1cccc(C(F)(F)F)c1 [‘4936]	1.9 and 1.7 and 2.4 and 1.5	1.7 fold and 1.4 fold and 1.6 fold	0.3 and 0.6 and 0.4 and 0.5	1.1 fold and 1 fold	1 fold and 1.1 fold and 1.2 fold	1 fold and 0.7 fold and 0.8 fold and 1.1 fold	2.1 fold and 1.6 fold and 1.2 fold and 1.1 fold	1.1 fold and 1.7 fold and 1.4 fold	0.6 and 1.1 and 0.7	0.8 fold and 0.7 fold	1.4 fold and 1.2 fold and 1.3 fold	0.7 fold and 0.8 fold	0.9 and 1.3 and 1.1	2 and 1.6 and 1.3 and 1.1	0.9 fold and 1.1 fold and 1.2 fold and 1 fold	0.8 fold and 0.9 fold and 0.7 fold and 0.6 fold	1.2 fold and 1.1 fold	0.7 and 0.9 and 0.8	1.4 and 1.2 and 1	2.1 fold and 2.4 fold and 1.6 fold and 2.5 fold	Fold of Basal RLU [21]: 12.4 and 11.8 and 12 and 10.8; Fold of Basal RLU [22]: 1.3 fold and 1.5 fold and 1.7 fold and 1.8 fold; Fold of Basal RLU [23]: 0.8 fold and 1 fold; Fold of Basal RLU [24]: 1 fold and 1.4 fold and 0.9 fold; Fold of Basal RLU [25]: 1.3 fold and 1.2 fold and 1.5 fold and 1.8 fold; Fold of Basal RLU [26]: 1.1 and 1 and 1.7 and 1.3; Fold of Basal RLU [27]: 0.9 fold and 1.2 fold and 1 fold and 1.1 fold; Fold of Basal RLU [28]: 1 and 0.8 and 0.6; Fold of Basal RLU [29]: 1 fold and 1.2 fold and 1.1 fold and 1.3 fold; Fold of Basal RLU [30]: 1.3 fold and 1.1 fold and 1.5 fold; Fold of Basal RLU [31]: 1.4 fold and 1.1 fold and 1.3 fold and 1.2 fold; Fold of Basal RLU [32]: 0.8 and 0.6 and 0.5 and 0.7; Fold of Basal RLU [33]: 1.1 fold and 1 fold and 0.9 fold; Fold of Basal RLU [34]: 1.2 fold and 0.7 fold and 1.1 fold; Fold of Basal RLU [35]: 1 fold and 0.7 fold and 0.9 fold and 1.1 fold; Fold of Basal RLU [36]: 1 fold and 1.1 fold and 0.9 fold and 0.8 fold; Fold of Basal RLU [37]: 1.1 fold and 1 fold
